Laboratory results taken from PubChem BioAssay AID244 (DTP/NCI, 2004).
Values joined by “and” are separate entries in the source; they are usually repeats but may differ in a detail not shown here. Identical values can stand only once. Records with an inconclusive call do not appear. How the source made its calls: active means survival T/C of 150% or more; inactive means T/C below 125% in these data.

System: CD2F1 mice, Lymphoma 8 ip, survival T/C
Assay: NCI In Vivo Anticancer Drug Screen. Data for tumor model Lymphoma 8 (intraperitoneal) in CD2F1 (CDF1) mice
Conditions: higher = longer survival
Procedure: The antitumor activity of compounds was measured in mice bearing transplantable tumors. Survival or tumor size were measured and the results are expressed as the measurement made in the treated group (T) divided by the measurement made in the vehicle treated control group (C). The tumor model used in this assay is Lymphoma 8 (intraperitoneal) in CD2F1 (CDF1) mice

[1] = endpoint: median survival time, dose: 100.0 mg/kg/injection, schedule: Q01DX010 (ip), vehicle: saline

Measured: T/C

O=C1NC(O)CCN1C1OC(CO)C(O)C1O (stereo unspecified)
inactive: endpoint: median survival time, dose: 10.0 mg/kg/injection, schedule: Q01DX015 (ip), vehicle: saline 102 % of control and 109 % of control | endpoint: median survival time, dose: 10.0 mg/kg/injection, schedule: Q04DX008 (ip), vehicle: saline 100 % of control and 101 % of control | endpoint: median survival time, dose: 10.0 mg/kg/injection, schedule: Q## X015 (ip), vehicle: saline 102 % of control and 109 % of control | endpoint: median survival time, dose: 30.0 mg/kg/injection, schedule: Q01DX015 (ip), vehicle: saline 102 % of control and 112 % of control | endpoint: median survival time, dose: 30.0 mg/kg/injection, schedule: Q04DX008 (ip), vehicle: saline 101 % of control (2×) and 103 % of control | endpoint: median survival time, dose: 30.0 mg/kg/injection, schedule: Q## X015 (ip), vehicle: saline 102 % of control and 112 % of control | endpoint: median survival time, dose: 100.0 mg/kg/injection, schedule: Q01DX015 (ip), vehicle: saline 102 % of control and 104 % of control | endpoint: median survival time, dose: 100.0 mg/kg/injection, schedule: Q04DX008 (ip), vehicle: saline 101 % of control (2×) and 103 % of control | endpoint: median survival time, dose: 100.0 mg/kg/injection, schedule: Q## X015 (ip), vehicle: saline 102 % of control and 104 % of control | endpoint: median survival time, dose: 300.0 mg/kg/injection, schedule: Q01DX015 (ip), vehicle: saline 99 % of control and 101 % of control | endpoint: median survival time, dose: 300.0 mg/kg/injection, schedule: Q04DX008 (ip), vehicle: saline 99 % of control and 102 % of control | endpoint: median survival time, dose: 300.0 mg/kg/injection, schedule: Q## X015 (ip), vehicle: saline 99 % of control and 101 % of control | endpoint: median survival time, dose: 1000.0 mg/kg/injection, schedule: Q01DX015 (ip), vehicle: saline 101 % of control | endpoint: median survival time, dose: 1000.0 mg/kg/injection, schedule: Q04DX008 (ip), vehicle: saline 99 % of control and 105 % of control | endpoint: median survival time, dose: 1000.0 mg/kg/injection, schedule: Q## X015 (ip), vehicle: saline 101 % of control

O=C1C=C(C2OC(CO)C(O)C2O)C(=O)N1 (stereo unspecified)
inactive: endpoint: median survival time, dose: 2.0 mg/kg/injection, schedule: Q01DX010 (ip), vehicle: saline 92 % of control | endpoint: median survival time, dose: 4.0 mg/kg/injection, schedule: Q01DX010 (ip), vehicle: saline 92 % of control | endpoint: median survival time, dose: 8.0 mg/kg/injection, schedule: Q01DX005 (ip), vehicle: saline 75 % of control | endpoint: median survival time, dose: 8.0 mg/kg/injection, schedule: Q01DX010 (ip), vehicle: saline 100 % of control | endpoint: median survival time, dose: 16.0 mg/kg/injection, schedule: Q01DX005 (ip), vehicle: saline 43 % of control | endpoint: median survival time, dose: 32.0 mg/kg/injection, schedule: Q01DX005 (ip), vehicle: saline 17 % of control

COc1cc2c(c3c1c(=O)c1ccccc1n3C)C=CC(C)(C)O2
inactive: endpoint: median survival time, dose: 12.5 mg/kg/injection, schedule: Q01DX009 (ip), vehicle: Klucel (hydroxypropylcellulose) (HPC) 100 % of control | endpoint: median survival time, dose: 25.0 mg/kg/injection, schedule: Q01DX009 (ip), vehicle: Klucel (hydroxypropylcellulose) (HPC) 100 % of control | endpoint: median survival time, dose: 50.0 mg/kg/injection, schedule: Q01DX009 (ip), vehicle: Klucel (hydroxypropylcellulose) (HPC) 107 % of control | endpoint: median survival time, dose: 100.0 mg/kg/injection, schedule: Q01DX009 (ip), vehicle: Klucel (hydroxypropylcellulose) (HPC) 96 % of control

NC(C/[N+]([O-])=N/O)C(=O)O (stereo unspecified)
inactive: endpoint: median survival time, dose: 12.5 mg/kg/injection, schedule: Q01DX009 (ip), vehicle: other 119 % of control | endpoint: median survival time, dose: 12.5 mg/kg/injection, schedule: Q01DX009 (ip), vehicle: saline + alcohol 113 % of control | endpoint: median survival time, dose: 12.5 mg/kg/injection, schedule: Q01DX009 (ip), vehicle: water 116 % of control | endpoint: median survival time, dose: 25.0 mg/kg/injection, schedule: Q01DX009 (ip), vehicle: other 120 % of control | endpoint: median survival time, dose: 25.0 mg/kg/injection, schedule: Q01DX009 (ip), vehicle: saline + alcohol 116 % of control | endpoint: median survival time, dose: 25.0 mg/kg/injection, schedule: Q01DX009 (ip), vehicle: water 122 % of control | endpoint: median survival time, dose: 50.0 mg/kg/injection, schedule: Q01DX009 (ip), vehicle: other 98 % of control | endpoint: median survival time, dose: 66.7 mg/kg/injection, schedule: Q01DX010 (ip), vehicle: alkali diluted with saline 121 % of control | endpoint: median survival time, dose: 100.0 mg/kg/injection, schedule: Q01DX009 (ip), vehicle: other 92 % of control | endpoint: median survival time, dose: 100.0 mg/kg/injection, schedule: Q01DX009 (ip), vehicle: saline + alcohol 103 % of control | endpoint: median survival time, dose: 100.0 mg/kg/injection, schedule: Q01DX009 (ip), vehicle: water 91 % of control | endpoint: median survival time, dose: 100.0 mg/kg/injection, schedule: Q01DX010 (ip), vehicle: alkali diluted with saline 109 % of control
active: endpoint: median survival time, dose: 13.2 mg/kg/injection, schedule: Q01DX010 (ip), vehicle: alkali diluted with saline 174 % of control | endpoint: median survival time, dose: 19.8 mg/kg/injection, schedule: Q01DX010 (ip), vehicle: alkali diluted with saline 197 % of control | endpoint: median survival time, dose: 29.6 mg/kg/injection, schedule: Q01DX010 (ip), vehicle: alkali diluted with saline 211 % of control | endpoint: median survival time, dose: 44.4 mg/kg/injection, schedule: Q01DX010 (ip), vehicle: alkali diluted with saline 180 % of control | endpoint: median survival time, dose: 50.0 mg/kg/injection, schedule: Q01DX009 (ip), vehicle: water 150 % of control

O=CC(S)CO (stereo unspecified)
inactive: endpoint: median survival time, dose: 25.0 mg/kg/injection, schedule: Q01DX010 (ip), vehicle: saline 92 % of control | endpoint: median survival time, dose: 50.0 mg/kg/injection, schedule: Q01DX010 (ip), vehicle: saline 92 % of control | [1] 100 % of control

NC(=O)c1[nH]nc(C2OC(CO)C(O)C2O)c1O (stereo unspecified)
inactive: endpoint: median survival time, dose: 2.0 mg/kg/injection, schedule: Q04DX003 (ip), vehicle: saline 103 % of control | endpoint: median survival time, dose: 4.0 mg/kg/injection, schedule: Q04DX003 (ip), vehicle: saline 91 % of control | endpoint: median survival time, dose: 8.0 mg/kg/injection, schedule: Q04DX003 (ip), vehicle: saline 123 % of control | endpoint: median survival time, dose: 16.0 mg/kg/injection, schedule: Q04DX003 (ip), vehicle: saline 75 % of control | endpoint: median survival time, dose: 32.0 mg/kg/injection, schedule: Q04DX003 (ip), vehicle: saline 53 % of control

NC(=O)C(N)CCO (stereo unspecified)
inactive: endpoint: median survival time, dose: 50.0 mg/kg/injection, schedule: Q01DX009 (ip), vehicle: saline 100 % of control and 102 % of control and 94 % of control | endpoint: median survival time, dose: 100.0 mg/kg/injection, schedule: Q01DX009 (ip), vehicle: saline 97 % of control [middle of 4 runs] | [1] 87 % of control and 88 % of control | endpoint: median survival time, dose: 200.0 mg/kg/injection, schedule: Q01DX009 (ip), vehicle: saline 98 % of control [middle of 4 runs] | endpoint: median survival time, dose: 200.0 mg/kg/injection, schedule: Q01DX010 (ip), vehicle: saline 91 % of control [middle of 4 runs] | endpoint: median survival time, dose: 400.0 mg/kg/injection, schedule: Q01DX009 (ip), vehicle: saline 100 % of control [middle of 4 runs] | endpoint: median survival time, dose: 400.0 mg/kg/injection, schedule: Q01DX010 (ip), vehicle: saline 95 % of control [middle of 4 runs]

CC[C@]1(O)C[C@H]2CN(CCc3c([nH]c4ccccc34)[C@@](C(=O)OC)(c3cc4c(cc3OC)N(C=O)[C@H]3[C@@](O)(C(=O)OC)[C@H](OC(C)=O)[C@]5(CC)C=CCN6CC[C@]43[C@@H]65)C2)C1
inactive: endpoint: median survival time, dose: 0.03 mg/kg/injection, schedule: Q01DX005 (ip), vehicle: saline 96 % of control and 104 % of control and 109 % of control | endpoint: median survival time, dose: 0.06 mg/kg/injection, schedule: Q01DX005 (ip), vehicle: saline 100 % of control and 103 % of control and 105 % of control | endpoint: median survival time, dose: 0.12 mg/kg/injection, schedule: Q01DX005 (ip), vehicle: saline 115 % of control and 118 % of control | endpoint: median survival time, dose: 0.13 mg/kg/injection, schedule: Q01DX005 (ip), vehicle: saline 116 % of control

C[C@H]1C(=O)O[C@@H]2CCN3CC=C(COC(=O)[C@](C)(O)[C@@]1(C)O)[C@H]23
inactive: endpoint: survival time, mean or median, dose: 3.13 mg/kg/injection, schedule: Q01DX010 (ip), vehicle: saline 100 % of control | endpoint: survival time, mean or median, dose: 6.25 mg/kg/injection, schedule: Q01DX010 (ip), vehicle: saline 100 % of control | endpoint: survival time, mean or median, dose: 12.5 mg/kg/injection, schedule: Q01DX010 (ip), vehicle: saline 100 % of control | endpoint: survival time, mean or median, dose: 25.0 mg/kg/injection, schedule: Q01DX010 (ip), vehicle: saline 100 % of control

O=c1[nH]cc(F)c(=O)[nH]1
inactive: endpoint: median survival time, dose: 13.0 mg/kg/injection, schedule: Q04DX003 (ip), vehicle: saline 110 % of control | endpoint: median survival time, dose: 21.8 mg/kg/injection, schedule: Q04DX003 (ip), vehicle: saline 118 % of control | endpoint: median survival time, dose: 36.0 mg/kg/injection, schedule: Q04DX003 (ip), vehicle: saline 114 % of control | endpoint: median survival time, dose: 100.0 mg/kg/injection, schedule: Q04DX003 (ip), vehicle: saline 62 % of control

N[C@H](C(=O)O)[C@@H]1CC(Cl)=NO1
inactive: endpoint: median survival time, dose: 0.38 mg/kg/injection, schedule: Q01DX009 (ip), vehicle: saline 105 % of control | endpoint: median survival time, dose: 0.75 mg/kg/injection, schedule: Q01DX009 (ip), vehicle: saline 115 % of control | endpoint: median survival time, dose: 1.5 mg/kg/injection, schedule: Q01DX009 (ip), vehicle: saline 118 % of control

Nc1ncnc2[nH]ncc12
inactive: endpoint: survival time, mean or median, dose: 1.5 mg/kg/injection, schedule: Q01DX010 (ip), vehicle: saline 90 % of control and 95 % of control | endpoint: survival time, mean or median, dose: 3.0 mg/kg/injection, schedule: Q01DX010 (ip), vehicle: saline 100 % of control | endpoint: survival time, mean or median, dose: 6.0 mg/kg/injection, schedule: Q01DX010 (ip), vehicle: saline 90 % of control and 95 % of control | endpoint: survival time, mean or median, dose: 12.0 mg/kg/injection, schedule: Q01DX010 (ip), vehicle: saline 90 % of control
